{"source": "patent US7388017B2", "about": "“Inhibitors of serine proteases, particularly hepatitis C virus NS3 protease” (Vertex Pharmaceuticals Incorporated, priority 1996, dated 2008)", "note": "Starred links: 1 amine or outer side, 2 acyl side, 3 side chain; linkers in the order of their positions; H or OH if unused. Non-standard residues stand in square brackets, D forms with d. Residues, ends and D or L forms follow the SMILES beside them. Groups on a side chain read outwards from the residue. *: point of attachment. NH(1,3-benzodioxol-5-yl) = c1cc2c(cc1N*)OCO2; X19 = O=[N+]([O-])c1cc(N*)ccc1N1CCCCC1; Pyrazinecarbonyl = O=C(c1cnccn1)*; NH(3-Cl-phenyl) = Clc1cccc(N*)c1; X30 = O=[N+]([O-])c1cccc(N*)c1; pNA = O=[N+]([O-])c1ccc(N*)cc1; X28 = c1ccc(Oc2cccc(N*)c2)cc1; Hyp = O=C(O)[CH]1C[CH](O)CN1; NH(3-MeOPh) = COc1cccc(N*)c1; X3 = c1ccc(-c2ccccc2N*)cc1; 3Abz = Nc1cccc(C(=O)O)c1; X18 = CC(=O)c1cccc(N*)c1; X39 = CC(=O)c1ccc(N*)cc1; X43 = Clc1cc(N*)cc(Cl)n1; X6 = Nc1c(Cl)cc(N*)cc1Cl; X17 = c1nc2ccc(N*)cc2s1; X9 = COc1ccc(OC)c(N*)c1; 2Abz = Nc1ccccc1C(=O)O; X14 = Clc1ccc(N*)cc1Cl; X42 = Clc1cccc(N*)c1Cl; X46 = Clc1cccc(Cl)c1N*; Abu = CC[CH](N)C(=O)O; X34 = N#Cc1cccc(N*)c1; X38 = CC(C)c1ccccc1N*; CO = O=C([*:1])[*:2]; NHBn = c1ccc(CN*)cc1; X47 = COc1ccccc1N*"}
{"molecular_target": "T1, HCV NS3 protease (Hepatitis C virus genotype 1a, UniProt P27958)", "T1 construct": "more particularly HCV NS3 proteases", "T1 sequence (P27958 1027-1208)": "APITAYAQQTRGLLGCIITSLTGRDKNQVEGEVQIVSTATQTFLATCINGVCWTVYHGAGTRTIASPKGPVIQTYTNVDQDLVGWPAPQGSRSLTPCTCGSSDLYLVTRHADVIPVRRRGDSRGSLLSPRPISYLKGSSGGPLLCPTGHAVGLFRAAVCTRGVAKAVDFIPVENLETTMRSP", "assay": "Enzyme inhibition of HCV NS3 serine protease (cleavage of peptide substrate / EDVV AbuC-p-nitroanilide, with or without NS4A)", "format": "biochemical", "settings": "Enzyme inhibition data; Ki from rate vs [inhibitor] plots, Morrison tight binding competitive inhibition fit; 30 C, pH 7.8; read-out: Ki", "protocol": "Cleavage reactions were quenched by the addition of an equal volume of a mixture of 10% TFA:acetonitrile (1:1) and activity was assessed on a reversed phase HPLC column (Rainin C18 Microsorb-MV, […], 4.6×250 mm; 0-50% acetonitrile, 0.1% TFA@ 3.33% min) using a Hewlett Packard 1050 instrument with auto-injection and diode array detection at 210 nm and 280 nm (where appropriate). Peptide elution fragments were collected and identified by mass spectrometry and N-terminal sequence analysis. Fragment identity and concentration was further verified by authentic, synthesized products. Initial rates of cleavage were determined at <20% substrate conversion and catalytic parameters were determined assuming Michaelis-Menten kinetics using the MultiFit program (Day Computing, Cambridge, Mass.).\nSpectrophotometric assays were run in a 96-well microtiter plate at 30 C, using a SpectraMax 250 reader (Molecular Devices, Sunnyvale, Calif.) with kinetic capability. Cleavage of EDVV AbuC-p-nitroanilide (5A-pNA) substrate was performed with or without […] in the same buffer used for HPLC assays at 30 C, and pNA release was monitored at 405 nm. The extinction-coefficient of p-nitroaniline is independent of pH at values of 5.5. and above [Tuppy, H., et al., Hoppe-Seyler's Z. Physiol. Chem., 329, pp. 278-288 (1962)]; Raybuck and Luong, unpublished observations).\nKinetic constants for the rapid equilibrium ordered bisubstrate reaction were determined from rate vs [4A], [EDVV AbuC-pNA] data by non-linear least squares fitting to equation 1 [Morrison, J. F. Biochim. Biophys. Acta, 185, pp. 269-286 (1969)] as described in the text. Kii and Kis values for peptidyl inhibitors were determined from rate vs [inhibitor], [substrate] data and fitting to the equation for mixed inhibition: rate=Vmax[S]/{Km(1+[I]/Kis)+[S](1+[I]/Kii)} The commercial program KinetAsyst (StateCollege, Pa.) was used for both procedures. Ki values were calculated from rate vs [inhibitor] plots by a nonlinear least squares fit of the data to the equation of Morrison for tight binding competitive inhibition [Morrison, J. F. Biochim. Biophys. Acta, 185, pp. 269-286 (1969)]. The KineTic program (BioKin Ltd) was used for this procedure.\nKi values are expressed in μM. Category “A” indicates <1 μM inhibition; category “B” indicates 1-100 μM inhibition; category “C” indicates >100 μM.", "units": {"Ki": "µM"}}
{"smiles": "CCC(C=O)NC(=O)C1CC(OC(=O)Nc2cccc(Cl)c2Cl)CN1C(=O)C(NC(=O)C(NC(=O)c1cnccn1)C(C)C)C(C)C", "note": "(centres unmarked) [Compound 31] (Pyrazinecarbonyl-VV[Hyp]([CO-X42])[Abu]-aldehyde; configuration not given here)", "Ki": "1 to 100"}
{"smiles": "CCC(C=O)NC(=O)C1CC(OC(=O)Nc2cccc(Cl)c2)CN1C(=O)C(NC(=O)C(NC(=O)c1cnccn1)C(C)C)C(C)C", "note": "(centres unmarked) [Compound 32] (Pyrazinecarbonyl-VV[Hyp]([CO-NH(3-Cl-phenyl)])[Abu]-aldehyde; configuration not given here)", "Ki": "1 to 100"}
{"smiles": "CCC(C=O)NC(=O)C1CC(OC(=O)Nc2cc(Cl)c(N)c(Cl)c2)CN1C(=O)C(NC(=O)C(NC(=O)c1cnccn1)C(C)C)C(C)C", "note": "(centres unmarked) [Compound 33] (Pyrazinecarbonyl-VV[Hyp]([CO-X6])[Abu]-aldehyde; configuration not given here)", "Ki": "> 100"}
{"smiles": "CCC(C=O)NC(=O)C1CC(OC(=O)Nc2ccc(N3CCCCC3)c([N+](=O)[O-])c2)CN1C(=O)C(NC(=O)C(NC(=O)c1cnccn1)C(C)C)C(C)C", "note": "(centres unmarked) [Compound 34] (Pyrazinecarbonyl-VV[Hyp]([CO-X19])[Abu]-aldehyde; configuration not given here)", "Ki": "1 to 100"}
{"smiles": "CCC(C=O)NC(=O)C1CC(OC(=O)Nc2ccc3ncsc3c2)CN1C(=O)C(NC(=O)C(NC(=O)c1cnccn1)C(C)C)C(C)C", "note": "(centres unmarked) [Compound 35] (Pyrazinecarbonyl-VV[Hyp]([CO-X17])[Abu]-aldehyde; configuration not given here)", "Ki": "1 to 100"}
{"smiles": "CCC(C=O)NC(=O)C1CC(OC(=O)Nc2cccc(C(C)=O)c2)CN1C(=O)C(NC(=O)C(NC(=O)c1cnccn1)C(C)C)C(C)C", "note": "(centres unmarked) [Compound 36] (Pyrazinecarbonyl-VV[Hyp]([CO-X18])[Abu]-aldehyde; configuration not given here)", "Ki": "> 100"}
{"smiles": "CCC(C=O)NC(=O)C1CC(OC(=O)Nc2ccc(C(C)=O)cc2)CN1C(=O)C(NC(=O)C(NC(=O)c1cnccn1)C(C)C)C(C)C", "note": "(centres unmarked) [Compound 37] (Pyrazinecarbonyl-VV[Hyp]([CO-X39])[Abu]-aldehyde; configuration not given here)", "Ki": "1 to 100"}
{"smiles": "CCC(C=O)NC(=O)C1CC(OC(=O)Nc2cccc(C#N)c2)CN1C(=O)C(NC(=O)C(NC(=O)c1cnccn1)C(C)C)C(C)C", "note": "(centres unmarked) [Compound 38] (Pyrazinecarbonyl-VV[Hyp]([CO-X34])[Abu]-aldehyde; configuration not given here)", "Ki": "1 to 100"}
{"smiles": "CCC(C=O)NC(=O)C1CC(OC(=O)Nc2ccc([N+](=O)[O-])cc2)CN1C(=O)C(NC(=O)C(NC(=O)c1cnccn1)C(C)C)C(C)C", "note": "(centres unmarked) [Compound 39] (Pyrazinecarbonyl-VV[Hyp]([CO-pNA])[Abu]-aldehyde; configuration not given here)", "Ki": "1 to 100"}
{"smiles": "CCC(C=O)NC(=O)C1CC(OC(=O)Nc2cccc([N+](=O)[O-])c2)CN1C(=O)C(NC(=O)C(NC(=O)c1cnccn1)C(C)C)C(C)C", "note": "(centres unmarked) [Compound 40] (Pyrazinecarbonyl-VV[Hyp]([CO-X30])[Abu]-aldehyde; configuration not given here)", "Ki": "1 to 100"}
{"smiles": "CCC(C=O)NC(=O)C1CC(OC(=O)Nc2cc(OC)ccc2OC)CN1C(=O)C(NC(=O)C(NC(=O)c1cnccn1)C(C)C)C(C)C", "note": "(centres unmarked) [Compound 41] (Pyrazinecarbonyl-VV[Hyp]([CO-X9])[Abu]-aldehyde; configuration not given here)", "Ki": "1 to 100"}
{"smiles": "CCC(C=O)NC(=O)C1CC(OC(=O)Nc2cccc(OC)c2)CN1C(=O)C(NC(=O)C(NC(=O)c1cnccn1)C(C)C)C(C)C", "note": "(centres unmarked) [Compound 42] (Pyrazinecarbonyl-VV[Hyp]([CO-NH(3-MeOPh)])[Abu]-aldehyde; configuration not given here)", "Ki": "1 to 100"}
{"smiles": "CCC(C=O)NC(=O)C1CC(OC(=O)Nc2ccccc2OC)CN1C(=O)C(NC(=O)C(NC(=O)c1cnccn1)C(C)C)C(C)C", "note": "(centres unmarked) [Compound 43] (Pyrazinecarbonyl-VV[Hyp]([CO-X47])[Abu]-aldehyde; configuration not given here)", "Ki": "1 to 100"}
{"smiles": "CCC(C=O)NC(=O)C1CC(OC(=O)Nc2ccc3c(c2)OCO3)CN1C(=O)C(NC(=O)C(NC(=O)c1cnccn1)C(C)C)C(C)C", "note": "(centres unmarked) [Compound 44] (Pyrazinecarbonyl-VV[Hyp]([CO-NH(1,3-benzodioxol-5-yl)])[Abu]-aldehyde; configuration not given here)", "Ki": "1 to 100"}
{"smiles": "CCC(C=O)NC(=O)C1CC(OC(=O)Nc2c(Cl)cccc2Cl)CN1C(=O)C(NC(=O)C(NC(=O)c1cnccn1)C(C)C)C(C)C", "note": "(centres unmarked) [Compound 45] (Pyrazinecarbonyl-VV[Hyp]([CO-X46])[Abu]-aldehyde; configuration not given here)", "Ki": "1 to 100"}
{"smiles": "CCC(C=O)NC(=O)C1CC(OC(=O)Nc2ccc(Cl)c(Cl)c2)CN1C(=O)C(NC(=O)C(NC(=O)c1cnccn1)C(C)C)C(C)C", "note": "(centres unmarked) [Compound 46] (Pyrazinecarbonyl-VV[Hyp]([CO-X14])[Abu]-aldehyde; configuration not given here)", "Ki": "1 to 100"}
{"smiles": "CCC(C=O)NC(=O)C1CC(OC(=O)NCc2ccccc2)CN1C(=O)C(NC(=O)C(NC(=O)c1cnccn1)C(C)C)C(C)C", "note": "(centres unmarked) [Compound 50] (Pyrazinecarbonyl-VV[Hyp]([CO-NHBn])[Abu]-aldehyde; configuration not given here)", "Ki": "1 to 100"}
{"smiles": "CCC(C=O)NC(=O)C1CC(OC(=O)Nc2cc(Cl)nc(Cl)c2)CN1C(=O)C(NC(=O)C(NC(=O)c1cnccn1)C(C)C)C(C)C", "note": "(centres unmarked) [Compound 51] (Pyrazinecarbonyl-VV[Hyp]([CO-X43])[Abu]-aldehyde; configuration not given here)", "Ki": "1 to 100"}
{"smiles": "CCC(C=O)NC(=O)C1CC(OC(=O)Nc2ccccc2-c2ccccc2)CN1C(=O)C(NC(=O)C(NC(=O)c1cnccn1)C(C)C)C(C)C", "note": "(centres unmarked) [Compound 52] (Pyrazinecarbonyl-VV[Hyp]([CO-X3])[Abu]-aldehyde; configuration not given here)", "Ki": "1 to 100"}
{"smiles": "CCC(C=O)NC(=O)C1CC(OC(=O)Nc2cccc(Oc3ccccc3)c2)CN1C(=O)C(NC(=O)C(NC(=O)c1cnccn1)C(C)C)C(C)C", "note": "(centres unmarked) [Compound 53] (Pyrazinecarbonyl-VV[Hyp]([CO-X28])[Abu]-aldehyde; configuration not given here)", "Ki": "1 to 100"}
{"smiles": "CCC(C=O)NC(=O)C1CC(OC(=O)Nc2ccccc2C(C)C)CN1C(=O)C(NC(=O)C(NC(=O)c1cnccn1)C(C)C)C(C)C", "note": "(centres unmarked) [Compound 54] (Pyrazinecarbonyl-VV[Hyp]([CO-X38])[Abu]-aldehyde; configuration not given here)", "Ki": "1 to 100"}
{"smiles": "CCC(C=O)NC(=O)C1CC(OC(=O)Nc2ccccc2C(=O)OC)CN1C(=O)C(NC(=O)C(NC(=O)c1cnccn1)C(C)C)C(C)C", "note": "(centres unmarked) [Compound 55] (Pyrazinecarbonyl-VV[Hyp]([CO-2Abz-OMe])[Abu]-aldehyde; configuration not given here)", "Ki": "1 to 100"}
{"smiles": "CCOC(=O)c1cccc(NC(=O)OC2CC(C(=O)NC(C=O)CC)N(C(=O)C(NC(=O)C(NC(=O)c3cnccn3)C(C)C)C(C)C)C2)c1", "note": "(centres unmarked) [Compound 56] (Pyrazinecarbonyl-VV[Hyp]([CO-3Abz-OEt])[Abu]-aldehyde; configuration not given here)", "Ki": "> 100"}
{"smiles": "CCC(C=O)NC(=O)C1CC(NC(=O)c2ccc(Cl)c(Cl)c2)CN1C(=O)C(NC(=O)C(NC(=O)c1cnccn1)C(C)C)C(C)C", "note": "(centres unmarked) [Compound 57]", "Ki": "1 to 100"}
{"smiles": "CCC(C=O)NC(=O)C1CC(NC(=O)NCc2ccccc2)CN1C(=O)C(NC(=O)C(NC(=O)c1cnccn1)C(C)C)C(C)C", "note": "(centres unmarked) [Compound 58]", "Ki": "1 to 100"}
{"smiles": "CCC(C=O)NC(=O)C1CC(NC(=O)N2CCOCC2)CN1C(=O)C(NC(=O)C(NC(=O)c1cnccn1)C(C)C)C(C)C", "note": "(centres unmarked) [Compound 59]", "Ki": "1 to 100"}
{"smiles": "CCC(C=O)NC(=O)C1CC(NC(=O)OCc2ccccc2)CN1C(=O)C(NC(=O)C(NC(=O)c1cnccn1)C(C)C)C(C)C", "note": "(centres unmarked) [Compound 60]", "Ki": "> 100"}
{"smiles": "C=CCOC(=O)NC1CC(C(=O)NC(C=O)CC)N(C(=O)C(NC(=O)C(NC(=O)c2cnccn2)C(C)C)C(C)C)C1", "note": "(centres unmarked) [Compound 61]", "Ki": "> 100"}
{"smiles": "CCC(C=O)NC(=O)C1CC(NC(=O)c2ccccc2)CN1C(=O)C(NC(=O)C(NC(=O)c1cnccn1)C(C)C)C(C)C", "note": "(centres unmarked) [Compound 62]", "Ki": "1 to 100"}
{"smiles": "CCC(C=O)NC(=O)C1CC(NC(=O)CCc2ccccc2)CN1C(=O)C(NC(=O)C(NC(=O)c1cnccn1)C(C)C)C(C)C", "note": "(centres unmarked) [Compound 63]", "Ki": "1 to 100"}
{"smiles": "CCC(C=O)NC(=O)C1CC(NC(=O)C(=O)c2ccccc2)CN1C(=O)C(NC(=O)C(NC(=O)c1cnccn1)C(C)C)C(C)C", "note": "(centres unmarked) [Compound 64]", "Ki": "1 to 100"}
{"smiles": "CCC(C=O)NC(=O)C1CC(NS(=O)(=O)Cc2ccccc2)CN1C(=O)C(NC(=O)C(NC(=O)c1cnccn1)C(C)C)C(C)C", "note": "(centres unmarked) [Compound 65]", "Ki": "1 to 100"}
